Experimental data from PMC3401513 (Molecular imaging and biology : MIB : the official …, 2012).
Several values for one entry are separate records, joined by “and”; a condition that tells them apart may be missing. Equal entries are not always repeated. Where two headings read alike, the source gives them in different places.

Target: integrin αvβ3 (Homo sapiens, UniProt P05106+P06756)
Conditions: for tumor washout (time-activity curves): MDA-MB-435 tumor, unblocked; for decrease in BpND after blocking with an excess amount of unlabeled RGD peptide: blocked vs unblocked
[1] = 60-min dynamic PET, n = 4/group
[2] = Blocked: c(RGDyK) injected 10 min before scanning, tumor region, MDA-MB-435 tumor-bearing mice, 60-min dynamic PET, mean ± SD, n = 4/group
[3] = Blocked: c(RGDyK) injected 10 min before scanning, tumor region, MDA-MB-435 tumor-bearing mice, 60-min dynamic PET, three-compartment model fit, mean ± SD, n = 4/group
[4] = MDA-MB-435 tumor-bearing mice, n = 4/group

integrin αvβ3, sequence (P06756 31-889 limits assumed): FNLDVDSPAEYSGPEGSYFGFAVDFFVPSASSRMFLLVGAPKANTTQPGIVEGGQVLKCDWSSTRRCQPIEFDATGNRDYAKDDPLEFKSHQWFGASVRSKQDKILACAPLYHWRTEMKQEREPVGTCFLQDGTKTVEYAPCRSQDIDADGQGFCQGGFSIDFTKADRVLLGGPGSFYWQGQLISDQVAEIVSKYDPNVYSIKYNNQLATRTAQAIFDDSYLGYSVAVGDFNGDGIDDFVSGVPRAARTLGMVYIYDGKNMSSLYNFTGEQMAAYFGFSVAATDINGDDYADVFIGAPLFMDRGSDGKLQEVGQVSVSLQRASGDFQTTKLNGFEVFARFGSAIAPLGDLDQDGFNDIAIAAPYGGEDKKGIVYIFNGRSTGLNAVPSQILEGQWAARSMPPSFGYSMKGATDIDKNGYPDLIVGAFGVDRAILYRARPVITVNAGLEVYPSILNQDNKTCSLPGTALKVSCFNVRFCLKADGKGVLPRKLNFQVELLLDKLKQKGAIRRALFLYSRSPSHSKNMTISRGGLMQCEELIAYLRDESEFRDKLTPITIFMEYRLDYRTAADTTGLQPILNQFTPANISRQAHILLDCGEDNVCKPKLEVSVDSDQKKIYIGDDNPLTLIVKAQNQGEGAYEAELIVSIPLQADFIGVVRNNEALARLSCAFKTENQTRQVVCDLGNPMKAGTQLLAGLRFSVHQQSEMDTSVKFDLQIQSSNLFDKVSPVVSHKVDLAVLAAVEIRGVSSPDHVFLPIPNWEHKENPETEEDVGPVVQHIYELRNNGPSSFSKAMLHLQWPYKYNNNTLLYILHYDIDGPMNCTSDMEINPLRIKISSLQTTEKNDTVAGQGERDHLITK
integrin αvβ3, sequence (P06756 891-1048 partner limits assumed): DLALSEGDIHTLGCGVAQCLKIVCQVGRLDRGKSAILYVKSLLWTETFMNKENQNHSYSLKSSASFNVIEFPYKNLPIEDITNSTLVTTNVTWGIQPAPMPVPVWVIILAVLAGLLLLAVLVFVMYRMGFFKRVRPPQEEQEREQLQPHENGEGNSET
integrin αvβ3, sequence (P05106 27-788): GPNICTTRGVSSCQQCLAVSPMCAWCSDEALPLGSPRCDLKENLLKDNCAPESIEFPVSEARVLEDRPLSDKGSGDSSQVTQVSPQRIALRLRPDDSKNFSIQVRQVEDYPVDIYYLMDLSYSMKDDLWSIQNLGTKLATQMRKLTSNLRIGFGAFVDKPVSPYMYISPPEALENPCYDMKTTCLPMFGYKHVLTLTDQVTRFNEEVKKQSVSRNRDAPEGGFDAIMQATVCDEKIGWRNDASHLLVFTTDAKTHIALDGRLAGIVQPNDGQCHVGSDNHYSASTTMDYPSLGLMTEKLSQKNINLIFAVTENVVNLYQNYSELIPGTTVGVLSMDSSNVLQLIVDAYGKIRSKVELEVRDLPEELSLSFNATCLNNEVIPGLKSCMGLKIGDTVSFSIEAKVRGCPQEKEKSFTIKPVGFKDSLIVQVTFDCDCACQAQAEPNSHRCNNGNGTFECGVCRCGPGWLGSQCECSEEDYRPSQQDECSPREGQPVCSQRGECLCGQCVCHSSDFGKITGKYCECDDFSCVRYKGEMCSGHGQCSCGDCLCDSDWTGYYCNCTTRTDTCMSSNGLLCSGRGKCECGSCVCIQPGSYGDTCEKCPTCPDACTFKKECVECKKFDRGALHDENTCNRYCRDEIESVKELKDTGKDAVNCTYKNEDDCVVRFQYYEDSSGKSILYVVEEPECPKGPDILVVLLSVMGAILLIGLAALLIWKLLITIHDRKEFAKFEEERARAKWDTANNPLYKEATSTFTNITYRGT

Row | tumor washout (time-activity curves) [1] | BpND (binding potential = k3/k4) [2] | k3 (on-rate for specific binding) [3] [min⁻¹] | k4 (target dissociation rate) [3] [min⁻¹] | BpND (binding potential = k3/k4) (Unblock, tumor region, MDA-MB-435 tumor-bearing mice, 60-min dynamic PET, three-compartment model, mean ± SD, n = 4/group, listed as RGD Dimer) | specific bound component (Cm) in the tumor region relative to the monomer (at 1-h, separated by model fitting) | decrease in BpND after blocking with an excess amount of unlabeled RGD peptide [4] | K1 (transfer from arterial plasma to tissue) (mouse, in vivo) [mL/g/min] | BpND (binding potential = k3/k4) (Unblock, tumor region, MDA-MB-435 tumor-bearing mice, 60-min dynamic PET, three-compartment model, mean ± SD, n = 4/group) | k2 (clearance from tissue) (mouse, in vivo) [min⁻¹] | BpND (binding potential = k3/k4) (Unblock, tumor region, MDA-MB-435 tumor-bearing mice, 60-min dynamic PET, three-compartment model, mean ± SD, n = 4/group, listed as RGD Monomer) | Substance
1 | much slower tumor washout | 1.257±0.293 | 0.064 ± 0.023 | 0.050 ± 0.009 | 5.865±0.312 | almost twice as much | ~ 80% | 0.082 ± 0.031 | – | – | – | ^18F-FP-PEG3-E[c(RGDyK)]2 [^18F-FPPRGD2]
2 | most rapid tumor washout | – | – | – | – | – | – | – | 0.89 ± 0.19 and 0.893±0.192 | 0.334 ± 0.092 | – | ^18F-FP-c(RADyK) [^18F-FPRAD, reference compound]
3 | – | 1.110±0.155 | 0.051 ± 0.016 | – | – | – | ~ 60% | 0.276 ± 0.256 | – | – | 2.747±0.483 | ^18F-FP-c(RGDyK) [^18F-FPRGD]
